We go through three compounds from ChEMBL document CHEMBL6096712, “Ligand Design with Accelerated Disulfide Formation with Serum Albumin to Extend Blood Retention” (ACS Med Chem Lett, 2025).

What all share (assay type): ADME, organism-based
Data set [1] in a line: Clearance in C57BL/6N mouse at 0.171 mM, iv measured upto 24 hrs. The following applies: in vivo.
Data set [2] is described as follows: AUCt in C57BL/6N mouse at 0.171 mM, iv measured upto 24 hrs. As to conditions: in vivo.
A short description of data set [3]: Terminal half life in C57BL/6N mouse at 0.171 mM, iv measured upto 24 hrs. The following applies: in vivo, read-out: beta t1/2 (converted).
Data set [4] can be described thus: Volume of distribution in C57BL/6N mouse at 0.171 mM, iv measured upto 24 hrs. The following applies: in vivo.
Data set [5] is described as follows: Primary phase half life in C57BL/6N mouse at 0.171 mM, iv measured upto 24 hrs. As to conditions: in vivo, read-out: alphat1/2 (converted).

In general, clearance refers to a measure of how efficiently the substance is removed, as volume per time. Read a low clearance as inefficient removal. Broadly, the AUC(0-t) is exposure summed from dosing to a finite time, without extrapolation to infinity. In general, Vd refers to the apparent volume that relates the amount in the body to the concentration in plasma or blood. Higher therefore signals extensive tissue distribution. With `CCCCCCCCCCCCCCCC(=O)NCCCCC(NC(=O)COCCOCCNC(=O)CCCCC[N+]1=C(/C=C/C2=CC(=C/C=C3/N(C)c4ccc(S(=O)(=O)O)cc4C3(C)C)/CCC2)C(C)(C)c2cc(S(=O)(=O)[O-])ccc21)C(=O)NCCOCCOCC(=O)NCCOCCOCC(=O)NC(CSSc1ccccn1)C(N)=O` (centres undefined), the clearance at 171 µM in data set [1] is 0.135 mL/min/kg. Moreover, the AUC(0-t) at 24 h, 171 µM in data set [2] was determined as 146000 ng·h/mL. Besides, the half-life at 171 µM is 7.62 h in data set [3] and 1.51 h in data set [5]. This compound also showed a distribution volume (Vd) at 171 µM in data set [4] of 0.0284 L/kg.

The compound `CN1/C(=C/C=C2C=C(/C=C/C3=[N+](CCCCCC(=O)NCCOCCOCC(=O)NCCOCCOCC(=O)NCCOCCOCC(=O)NC(CSSc4ccccn4)C(N)=O)c4ccc(S(=O)(=O)[O-])cc4C3(C)C)CCC/2)C(C)(C)c2cc(S(=O)(=O)O)ccc21` (centres undefined) had a clearance at 171 µM in data set [1] of 0.307 mL/min/kg. In addition, the AUC(0-t) at 24 h, 171 µM in data set [2] worked out at 50500 ng·h/mL. Also, the half-life at 171 µM in data set [3] is 4.73 h; in data set [5], 1.26 h. In data set [4], this compound gave a volume of distribution (Vd) at 171 µM of 0.0413 L/kg.

On to `CCCCCCCCCCCCCCCC(=O)NCCCCC(NC(=O)COCCOCCNC(=O)CCCCC[N+]1=C(/C=C/C2=CC(=C/C=C3/N(C)c4ccc(S(=O)(=O)O)cc4C3(C)C)/CCC2)C(C)(C)c2cc(S(=O)(=O)[O-])ccc21)C(=O)NCCOCCOCC(=O)NCCOCCOCC(N)=O` (centres undefined), for which the clearance at 171 µM in data set [1] was 0.563 mL/min/kg. Further, the area under the curve AUC(0-t) at 24 h, 171 µM in data set [2] is 30800 ng·h/mL. Moreover, the half-life at 171 µM in data set [3] is 0.83 h. For the same compound, the Vd at 171 µM in data set [4] stood at 0.0427 L/kg.
